A value given as a limit tells only on which side of the number the result lay.

Series [1] concerns the target T1, NaV1.7 (Homo sapiens, UniProt Q15858).
T1 construct: expressed in transfected cells; host or cells: HEK293, tetracycline-inducible
Briefly: Automated patch clamp (Qube 384), internal block of NaV1.7 in HEK293 cells. Type of series: cell-based. The conditions noted are these: compound in internal solution, read-out: NaV1.7 Intracellular Inhibition. The method, then: (§1) NaV1.7 was expressed in HEK293 cells upon induction with tetracycline. Cells were cultured in DMEM containing 10% dialyzed Fetal Bovine Serum (VWR, Radnor, Pa.), 1% Glutamax (VWR, Radnor, Pa.), 1% Penicillin-Streptomycin (VWR, Radnor, Pa.), 100 mg/L Hygromycin (Thermo Fisher Scientific, Waltham, Mass. and 5 mg/L Blasticidin (Alfa Aesar, Haverhill, Mass.). Cells were grown and maintained at 37° C. in a humidified environment containing 10% CO2 in air. Cells were detached from the culture flask for passage and harvested using 0.05% Trypsin-EDTA (Thermo Fisher Scientific, Waltham, Mass.). To induce NaV1.7, cells were induced with tetracycline (0.1-1 μg/mL, IBI Scientific, Peosta, Iowa) the day before recording.
(§2) Before experiments, cells were washed with DPBS (VWR, Radnor, Pa.), digested with Detachin (VWR Radnor, Pa.) and then triturated 10 times in CHO Serum-Free Media (VWR Radnor, Pa.) to resuspend the cells and to break apart cell aggregates. Cells were counted and the final concentration was set at 2-5 million cells per mL.
(§3) The intracellular solution contained the following: 140 mM CsF, 1 mM/5 mM EGTA/CsOH, 10 mM HEPES, 10 mM NaCl, adjusted to pH 7.3 with CsOH, and osmolality to 320 with sucrose. The external solution contained the following: 145 mM NaCl, 4 mM KCl, 1 mM MgCl2, 2 mM CaCl2, 10 mM HEPES, 10 mM Glucose, adjusted to pH 7.4 with CsOH and osmolality to 305 with sucrose. All chemicals are from Sigma-Aldrich, St. Louis, Mo. In order to test the degree of internal block by test compounds, the compounds were dissolved in internal solution at the indicated test concentration. […] In order to test the degree of external block by test compounds the compounds were dissolved in external solution at the indicated test concentration.
(§4) Automated Patch Clamps were performed on Qube 384 (Sophion Bioscience, Woburn Mass.) with multihole Qchips at a temperature setting of 22 degrees. The whole cells configuration was formed with default Qube seal and break-in parameter. The membrane potential was held at −100 mV before the voltage protocol began. Two voltage protocols were followed.
(§5) Step 1: Cells were held at −100 mV with a depolarized pulse to −20 mV for 10 ms, the interval was set at 5 s. Currents were corrected by default leak subtraction from every pulse. The duration was set at 5 mins.
(§6) Step 2: Cells were held at −100 mV with a depolarized pulse to −20 mV for 10 ms. The frequency was 5 Hz. Currents were corrected by leak subtraction calculated before step 2. The duration was set at 4 mins.
After Step 2, the Qchip was removed from the recording chamber. The internal solution was changed with solutions containing test compounds. Qchips were held at −100 mV without pulsing after being replaced in the recording chamber. The total solution switching time was 8 minutes. After the internal solution exchange, Cells were recorded and step 2 for repeated for 10 minutes.
Data analysis was performed by Sophion Analyzer. Cells were filtered with minimum 50 MOhm seal resistance and minimum 5 nA starting current. The rundown of the currents was corrected with control cells (Non-Drug). The remaining was calculated by averaging last 3 points in the end of experiments. The base line was calculated as the average of last 3 points of Step 2. IC50 curves were plotted with DR-plots/Hill function (a dose-response plot with a Hill fit).
Representative examples of the invention were tested for intracellular inhibition of NaV 1.7 in the automated patch clamp assay. Activity Range is reported as IC50: “++++” (<1 μM), “+++” (1-3 μM), “++” (3-10 μM) or “+” (10-30 μM).
Background: In patch-clamp work, channel activity is measured electrically.

A short description of series [2]: PAMPA membrane permeability assay. Type of series: physicochemical. The conditions noted are these: pH 7.4 buffer, GIT lipid, 4 hours incubation. The procedure, abridged:
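Passive diffusion across a GIT-lipid-painted artificial membrane, with compounds at 50 uM in pH 7.4 buffer in the donor well and 4 h incubation. Donor, acceptor and reference solutions were quantified by UV spectra, and permeability coefficients (10^−6 cm/s) were derived from AUCs. Results are binned as + (<0.1), ++ (0.1-2.0), +++ (2.0-10.0), ++++ (>10.0).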

Series [3] addresses T1, NaV1.7. As to the kind of experiment: Automated patch clamp (Qube 384), external block of NaV1.7 in HEK293 cells. Type of series: cell-based. The conditions noted are these: compound in external solution, read-out: NaV1.7 Extracellular Inhibition. The method, then:
as §1, §2, §3, §4, §5, §6
After Step 2, the external solution was changed with solutions containing test compounds. Qchips were held at −100 mV without pulsing. The total solution switching time was 8 minutes. After the external solution exchange, cells were recorded using the same procedure as step 2 for 10 minutes.
Data analysis was performed by Sophion Analyzer. Data were corrected with control cells (Non-Drug). The IC50 data were plotted with DR-plots/Hill function (a dose-response plot with a Hill fit).
Representative examples of the invention were tested for extracellular inhibition of NaV 1.7 in the automated patch clamp assay. Activity Range is reported as IC50: “++++” (<1 μM), “+++” (1-10 μM), “++” (10-30 μM) or “+” (>30 μM).

T1 sequence (Q15858 whole entry): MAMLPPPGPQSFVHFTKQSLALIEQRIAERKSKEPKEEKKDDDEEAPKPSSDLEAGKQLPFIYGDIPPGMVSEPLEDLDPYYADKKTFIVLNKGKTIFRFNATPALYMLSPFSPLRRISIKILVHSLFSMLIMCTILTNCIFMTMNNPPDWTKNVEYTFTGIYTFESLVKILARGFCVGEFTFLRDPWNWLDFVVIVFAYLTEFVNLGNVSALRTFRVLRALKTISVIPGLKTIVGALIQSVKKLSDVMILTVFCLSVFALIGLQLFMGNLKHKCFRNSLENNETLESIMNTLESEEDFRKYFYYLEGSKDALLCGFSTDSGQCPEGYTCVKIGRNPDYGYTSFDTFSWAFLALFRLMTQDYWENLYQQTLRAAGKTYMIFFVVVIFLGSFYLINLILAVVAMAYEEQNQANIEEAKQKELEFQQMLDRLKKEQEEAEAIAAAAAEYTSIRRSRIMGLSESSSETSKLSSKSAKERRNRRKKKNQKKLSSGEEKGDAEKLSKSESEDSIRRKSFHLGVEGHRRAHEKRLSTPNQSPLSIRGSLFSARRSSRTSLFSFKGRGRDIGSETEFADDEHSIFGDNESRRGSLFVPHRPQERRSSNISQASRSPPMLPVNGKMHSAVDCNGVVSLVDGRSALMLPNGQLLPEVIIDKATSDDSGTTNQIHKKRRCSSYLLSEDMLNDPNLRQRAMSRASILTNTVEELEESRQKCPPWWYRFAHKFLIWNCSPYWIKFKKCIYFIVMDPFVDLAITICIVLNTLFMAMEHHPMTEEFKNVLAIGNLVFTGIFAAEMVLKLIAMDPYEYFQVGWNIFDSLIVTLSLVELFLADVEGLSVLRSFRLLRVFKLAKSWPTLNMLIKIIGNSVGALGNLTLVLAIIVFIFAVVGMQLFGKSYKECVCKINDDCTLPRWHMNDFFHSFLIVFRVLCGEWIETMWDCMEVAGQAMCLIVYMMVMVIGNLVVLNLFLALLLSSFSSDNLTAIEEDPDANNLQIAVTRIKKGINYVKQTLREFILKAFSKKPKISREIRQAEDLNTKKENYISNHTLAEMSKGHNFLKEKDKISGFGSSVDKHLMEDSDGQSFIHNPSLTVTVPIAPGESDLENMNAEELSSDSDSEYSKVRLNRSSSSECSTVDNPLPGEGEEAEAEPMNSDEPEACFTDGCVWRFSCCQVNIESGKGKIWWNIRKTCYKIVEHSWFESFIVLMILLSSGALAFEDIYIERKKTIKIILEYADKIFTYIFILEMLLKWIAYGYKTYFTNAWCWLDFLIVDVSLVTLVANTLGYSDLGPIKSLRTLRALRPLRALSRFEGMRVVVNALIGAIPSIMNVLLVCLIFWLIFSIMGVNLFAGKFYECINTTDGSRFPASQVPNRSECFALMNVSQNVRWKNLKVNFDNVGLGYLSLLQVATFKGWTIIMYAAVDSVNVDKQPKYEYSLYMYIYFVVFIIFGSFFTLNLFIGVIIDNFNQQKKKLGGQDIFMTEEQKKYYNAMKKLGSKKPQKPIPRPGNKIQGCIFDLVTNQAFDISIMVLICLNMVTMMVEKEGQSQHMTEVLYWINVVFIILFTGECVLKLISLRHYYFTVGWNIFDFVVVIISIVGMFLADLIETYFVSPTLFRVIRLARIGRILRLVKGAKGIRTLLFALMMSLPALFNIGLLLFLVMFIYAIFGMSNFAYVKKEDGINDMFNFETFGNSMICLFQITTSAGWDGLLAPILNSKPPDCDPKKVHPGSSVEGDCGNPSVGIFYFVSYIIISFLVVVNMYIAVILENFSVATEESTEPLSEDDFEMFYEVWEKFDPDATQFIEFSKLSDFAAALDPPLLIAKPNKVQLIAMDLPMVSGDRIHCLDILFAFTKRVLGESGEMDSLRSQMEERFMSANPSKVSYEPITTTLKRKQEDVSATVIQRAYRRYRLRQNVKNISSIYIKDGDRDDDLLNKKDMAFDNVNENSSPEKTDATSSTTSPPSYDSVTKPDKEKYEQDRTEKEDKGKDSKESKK

`CC[N+]1(CC(=O)Nc2c(C)cccc2C(=O)OC)CCCC(C(N)=O)C1.[I-]` (stereo not drawn) [Compound 55]: the IC50 on NaV1.7 [1] was 3 to 10 µM; at NaV1.7 [3], over 30 µM. Also, in series [2], the “PAMPA (10^−6 cm/s)” value is given as “+ (<0.1 10^−6 cm/s)”.

`CCOC(=O)c1cccc(C)c1NC(=O)C[N+]1(Cc2ccccc2)CCCC1.[Br-]` [Compound 9]: the values for the IC50 at NaV1.7 [1] and at NaV1.7 [3] were under 1 µM and 1 to 10 µM, respectively. In series [2], the “PAMPA (10^−6 cm/s)” value is “+ (<0.1 10^−6 cm/s)”.

Turning to `COC(=O)c1cccc(C)c1NC(=O)C[N+]1(Cc2ccccc2)CCCCCC1` [Compound 1], the IC50 on NaV1.7 [1] was under 1 µM; on NaV1.7 [3], 1 to 10 µM. Besides, the “PAMPA (10^−6 cm/s)” value in series [2] is “+ (<0.1 10^−6 cm/s)”.

With `COC(=O)c1cccc(C)c1NC(=O)C[N+]1(Cc2ccccc2)CCCC(C(=O)NC(C)C)C1.[Br-]` (stereo not drawn) [Compound 32], the IC50 on NaV1.7 [1] was under 1 µM; at NaV1.7 [3] it was over 30 µM. Moreover, the “PAMPA (10^−6 cm/s)” value in series [2] is recorded as “+ (<0.1 10^−6 cm/s)”.

Turning to `COC(=O)c1cccc(C)c1NC(=O)C[n+]1cccn1C1CCCCC1.[Br-]` [Compound 69], the IC50 at NaV1.7 [1] is under 1 µM; at NaV1.7 [3] it was over 30 µM. Moreover, the “PAMPA (10^−6 cm/s)” value in series [2] was “++ (0.1-2.0 10^−6 cm/s)”.

As for `CC[N+]1(CC(=O)Nc2c(C)cccc2C(=O)OC)CCCC(c2ccccc2)C1` (mixture of isomers) [Compound 65], the IC50 was under 1 µM at NaV1.7 [1] and 10 to 30 µM on NaV1.7 [3]. Further, the “PAMPA (10^−6 cm/s)” value in series [2] is on record as “+ (<0.1 10^−6 cm/s)”.

With `Cc1cccc(C(=O)OC(C)C)c1NC(=O)C[N+]1(Cc2ccccc2)CCCCCC1.[Br-]` [Compound 7], the IC50 on NaV1.7 [1] is under 1 µM; on NaV1.7 [3], 1 to 10 µM. Besides, the “PAMPA (10^−6 cm/s)” value in series [2] was “+ (<0.1 10^−6 cm/s)”.

Regarding `CCOC(=O)C1CCC[N+](CC(=O)Nc2c(C)cccc2C(=O)OC)(Cc2ccccc2)C1` (mixture of isomers) [Compound 16], the IC50 was under 1 µM on NaV1.7 [1] and 1 to 10 µM on NaV1.7 [3]. Moreover, the “PAMPA (10^−6 cm/s)” value in series [2] is reported as “+ (<0.1 10^−6 cm/s)”.

Turning to `COC(=O)c1cccc(C)c1NC(=O)C[N+]1(Cc2ccccc2)CCCC1` [Compound 5], the IC50 at NaV1.7 [1] was 1 to 3 µM; on NaV1.7 [3], over 30 µM. The “PAMPA (10^−6 cm/s)” value in series [2] is on record as “+++ (2.0-10.010^−6 cm/s)”.

For `COC(=O)c1cccc(C)c1NC(=O)C[N+]1(Cc2ccccc2)CCCCC1.[Br-]` [Compound 3], the values for the IC50 at NaV1.7 [1] and on NaV1.7 [3] were 1 to 3 µM and over 30 µM, respectively. The “PAMPA (10^−6 cm/s)” value in series [2] is listed as “+ (<0.1 10^−6 cm/s)”.

On to `COC(=O)c1cccc(C)c1NC(=O)C[n+]1cccc(-c2ccccc2)c1.[Br-]` [Compound 66], for which the IC50 is under 1 µM at NaV1.7 [1] and 10 to 30 µM on NaV1.7 [3]. In series [2], the “PAMPA (10^−6 cm/s)” value is recorded as “+ (<0.1 10^−6 cm/s)”.

As for `CCOC(=O)c1cccc(C)c1NC(=O)C[N+]1(Cc2ccccc2)CCCCCC1` [Compound 2], the IC50 on NaV1.7 [1] was under 1 µM; at NaV1.7 [3], 1 to 10 µM. The “PAMPA (10^−6 cm/s)” value in series [2] is “+ (<0.1 10^−6 cm/s)”.

For the compound `COC(=O)c1cccc(C)c1NC(=O)C[N+]1(Cc2ccccc2)CCCC(C(=O)NCC(C)C)C1.[Br-]` (stereo not drawn) [Compound 36], the IC50 on NaV1.7 [1] was in the range of 1 to 3 µM; on NaV1.7 [3], 10 to 30 µM. For the same compound, in series [2], the “PAMPA (10^−6 cm/s)” value is given as “+++ (2.0-10.010^−6 cm/s)”.

For the compound `COC(=O)c1cccc(C)c1NC(=O)C[N+]1(Cc2ccccc2)CCCC(C(N)=O)C1.[Br-]` (stereo not drawn) [Compound 30], the IC50 on NaV1.7 [1] was under 1 µM; on NaV1.7 [3], over 30 µM. In addition, the “PAMPA (10^−6 cm/s)” value in series [2] is “+ (<0.1 10^−6 cm/s)”.

As for `CNC(=O)C1CCC[N+](CC(=O)Nc2c(C)cccc2C(=O)OC)(Cc2ccccc2)C1` (mixture of isomers) [Compound 31], the values for the IC50 on NaV1.7 [1] and on NaV1.7 [3] were under 1 µM and over 30 µM, respectively. The “PAMPA (10^−6 cm/s)” value in series [2] was “+ (<0.1 10^−6 cm/s)”.

`CCOC(=O)C[N+]1(CC(=O)Nc2c(C)cccc2C(=O)OC)CCCC(c2ccccc2)C1.O=C([O-])C(F)(F)F` (stereo not drawn) [Compound 63]: the IC50 is under 1 µM on NaV1.7 [1] and 1 to 10 µM on NaV1.7 [3]. In series [2], the “PAMPA (10^−6 cm/s)” value is reported as “+++ (2.0-10.010^−6 cm/s)”.

For the compound `CCCNC(=O)C1CCC[N+](CC(=O)Nc2c(C)cccc2C(=O)OC)(Cc2ccccc2)C1` (mixture of isomers) [Compound 28], the IC50 is under 1 µM at NaV1.7 [1] and 10 to 30 µM on NaV1.7 [3]. In addition, the “PAMPA (10^−6 cm/s)” value in series [2] was “+++ (2.0-10.010^−6 cm/s)”.

(Values after patent publication US10927096B2, “Ester substituted ion channel blockers and methods for use” (Nocion Therapeutics, Inc., priority 2019, dated 2021).)
